From BindingDB's records for doi:10.1021/jm058033i (University of Regensburg, 2006)

Columns and labels:
[1] = Inhibition of DNA synthesis in IL3 dependent FDC-P1 cells expressing KIT V558D mutant
[2] = Inhibition of DNA synthesis in IL3 dependent FDC-P1 cells expressing wild-type KIT
[3] = Antiproliferative activity against mouse 32Dcl3 cell line expressing wild-type FLT3
[4] = Antiproliferative activity against mouse 32Dcl3 cell line expressing FLT3-ITD

## Cc1cccc2[nH]c(C(=O)c3cc4cc(O)ccc4[nH]3)cc12 [(5-Hydroxy-1H-indol-2-yl)-(4-methyl-1H-indol-2-yl)-methanone]
[1]
  IC50: 500 nM
[2]
  IC50: 500 nM

## O=C(c1cc2cc(O)ccc2[nH]1)c1cc2cc(O)ccc2[nH]1 [Bis-(5-hydroxy-1H-indol-2-yl)-methanone]
[3]
  IC50: 100 nM
[1]
  IC50: 500 nM
[4]
  IC50: 100 nM
[2]
  IC50: 500 nM
